Test results: US20120076757A1, “COMPOSITION FOR TRANSMUCOSAL DELIVERY OF POLYPEPTIDES” (Cephalon, Inc., priority 2007, published 2012)

Experiments:
[1] = Anaesthetized dog model, salmon calcitonin oral transmucosal permeation from effervescent tablets; assay type: in vivo; conditions: adding 2.5% NaTC or more to the effervescent formulation
From the text: Anesthetized dog models were used to evaluate transmucosal permeation of polypeptide compositions prepared in accordance with the invention. Mature mongrel large-breed (15-35 kg) dogs were screened for medical conditions to qualify. For testing, the dogs were anaesthetized, placed on their right or left side, and cannulated via the cephalic vein. A Teflon ring was attached to the buccal mucosa in a horizontal position to form a reservoir. Biologically active polypeptides to be evaluated were deposited, with or without enhancer components, onto the buccal mucosa surrounded by the ring. Depending upon the experiment, active polypeptides were deposited in the form of solution, dry powder or solid dosage form (tablet). […]
At 2 hours, the dog is removed from anesthesia and the ring is removed from its buccal mucosa. […] Blood samples are allowed to clot, the serum is separated by centrifugation, and the serum is frozen at −20° or −80° C., depending upon the protocol until analyzed for the active polypeptide content.
Salmon calcitonin (s-Ct) was tested for buccal permeation into the blood stream of anesthetized dogs with effervescent compressed tablets containing s-Ct and the bile salt (sodium taurocholate) at 0%, 2.5%, 5.0%, and 10% bile salt. […] The following table contains the formulation information of the tablets evaluated. […]

[2] = test system: cultured human buccal carcinoma cells (SqCC/Y1 cells); experiment: In vitro permeability assay (apparent permeability coefficient Papp across multilayer buccal cell culture); conditions: ELISA
Protocol: (§1) In vitro permeability testing was conducted as follows. Starting with acrylic inserts having one end sealed with 0.6 cm square area inserts of acrylic and polycarbonate membranes without cells, the cultured human buccal carcinoma cells (SqCC/Y1 cells) were grown on the membrane surface in culture medium for a period of 24 hours. The culture medium was removed from the top of the insert (“air-lifting” process), wherein the cells continued to receive nutrients from the culture medium beneath the inserts. Under these conditions, the cells were grown for a period of 7 to 10 days so as to grow the cells to multilayer confluence on the polycarbonate membrane, thereby increasing cellular density to a multi-layer, tissue-like barrier resembling that of buccal mucosal tissue.
(§2) The assay was performed by rinsing the inserts with Krebs-Ringer buffer solution without sodium bicarbonate (KRB) and inspecting for uniformity by measuring the transepithelial electrical resistance (TEER). When the average electrical resistance necessary was 350 ohms or greater, the inserts were selected for permeability testing, thereby ensuring consistent permeability barrier thickness and distribution.
(§3) The inserts were separated into the groups (e.g., n=3) with closely similar average TEER values (of the group) to be used in testing particular formulations of active pharmaceutical ingredients (i.e., polypeptide). For a given bile salt, for example, the sample groups were as follows: • 1) polypeptide alone; • 2) polypeptide in combination with bile salt; • 3) polypeptide in combination with effervescent excipient composition (Excipient Formula 1) powder; • 4) polypeptide in combination with bile salt (varying concentrations) and effervescent excipient composition (Excipient Formula 1) powder.
(§4) The inserts were placed into cell culture wells with a defined volume of KRB and incubated at 37° C. on shaker tables set at 100 rpm. Thus, the cells were exposed to the given active ingredient (polypeptide) without and in combination with the various excipient formulations described.
(§5) Samples were removed from the basolateral fluid every 10 minutes for a period of one hour, and the removed fluid was replaced with an equal volume of KRB. At the end of the hour, the residual fluid within the insert was recovered and stored, the insert was rinsed with KRB, and the TEER value again measured. The TEER differences between the starting step TEER and final step TEER were recorded.
(§6) The samples from the basolateral wells were analyzed for the active ingredient (polypeptide) using various techniques. The amount of active in the well was calculated and corrected for sampling loss.
(§7) Enhancement Ratio (ER) is equal to the ratio of the Papp with absorption enhancer divided by the Papp without absorption enhancer. Thus, this technique was used for each of the proposed permeability enhancement compositions below.
(§8) The permeability of fluorescently-labeled polypeptide with and without enhancement was measured by the in vitro permeability assay. The amount of polypeptide permeating through the cells/tissue into the basolateral fluid was measured and the apparent permeability coefficient (Papp) for each polypeptide sample was calculated.

[3] = Anaesthetized dog model, desmopressin oral transmucosal (buccal) permeation, serum by LC/MS/MS; assay type: in vivo
From the text: Anesthetized dog models were used to evaluate transmucosal permeation of polypeptide compositions prepared in accordance with the invention. Mature mongrel large-breed (15-35 kg) dogs were screened for medical conditions to qualify. For testing, the dogs were anaesthetized, placed on their right or left side, and cannulated via the cephalic vein. A Teflon ring was attached to the buccal mucosa in a horizontal position to form a reservoir. Biologically active polypeptides to be evaluated were deposited, with or without enhancer components, onto the buccal mucosa surrounded by the ring. Depending upon the experiment, active polypeptides were deposited in the form of solution, dry powder or solid dosage form (tablet). Blood samples were taken every 10 minutes for a period of 2 hours, with additional samples taken up to 4 hours depending upon the protocol. The active-containing compositions were removed from the reservoir at 60 minutes and the reservoir rinsed twice.
At 2 hours, the dog is removed from anesthesia and the ring is removed from its buccal mucosa. Following recovery from anesthesia, subsequent blood samples are taken from the awake dogs. Blood samples are allowed to clot, the serum is separated by centrifugation, and the serum is frozen at −20° or −80° C., depending upon the protocol until analyzed for the active polypeptide content.
Desmopressin (deamino-Cysl-D-Arg Vasopressin, or D-Arg Vasopresin) was tested for buccal permeation into the blood stream by various administration forms: solution, powder, and compressed tablet.
Desmopressin-containing tablets for the experiment were prepared by combining 200 mg of effervescent formulation described in Example 1A (EF 1) with 20 mg sodium taurocholate. This mixture was added directly into a vial of lyophilized desmopressin. […]
Tablets prepared accordingly were tested in dogs per protocol described above. […] Desmopres sin was measured using LC/MS/MS analysis o the serum samples.

[4] = test system: cultured human buccal carcinoma cells (SqCC/Y1 cells)
Protocol: as §1, §2, §3, §4, §5, §6, §7, §8

[5] = INTRON A acquired from Schering Corp.; cited from earlier work
[6] = with bile salt (sodium taurocholate) alone

Molecule: CC(C)C[C@H](NC(=O)[C@H](CCCCN)NC(=O)CNC(=O)[C@H](CC(C)C)NC(=O)[C@@H](NC(=O)[C@@H]1CSSC[C@H](N)C(=O)N[C@@H](CO)C(=O)N[C@@H](CC(N)=O)C(=O)N[C@@H](CC(C)C)C(=O)N[C@@H](CO)C(=O)N[C@@H]([C@@H](C)O)C(=O)N1)C(C)C)C(=O)N[C@@H](CO)C(=O)N[C@@H](CCC(N)=O)C(=O)N[C@@H](CCC(=O)O)C(=O)N[C@@H](CC(C)C)C(=O)N[C@@H](Cc1c[nH]cn1)C(=O)N[C@@H](CCCCN)C(=O)N[C@@H](CC(C)C)C(=O)N[C@@H](CCC(N)=O)C(=O)N[C@H](C(=O)N[C@@H](Cc1ccc(O)cc1)C(=O)N1CCC[C@H]1C(=O)N[C@@H](CCCNC(=N)N)C(=O)N[C@H](C(=O)N[C@@H](CC(N)=O)C(=O)N[C@H](C(=O)NCC(=O)N[C@@H](CO)C(=O)NCC(=O)N[C@H](C(=O)N1CCC[C@H]1C(N)=O)[C@@H](C)O)[C@@H](C)O)[C@@H](C)O)[C@@H](C)O [s-CT]
- transmucosal permeability of s-Ct in anesthetized dogs [1]: large improvement in permeability
- permeation result of combination compared with individual effects ([2]; s-CT + taurocholate + EF 2): greater than the sum of the individual permeation effects
- in vitro permeation of s-CT across mucosal tissue (Papp) ([2]; with EF 2 alone): does not appear to exhibit an increase in permeation
- in vitro permeation of s-CT across mucosal tissue (Papp) [2, 6]: does not appear to exhibit an increase in permeation
- in vitro permeation/transport of s-CT across mucosal tissue (Papp) ([2]; with effervescent formulation (EF 2) and 1% or 2% bile salt): does appear to exhibit appreciably enhanced permeation/transport

Molecule: IGF-1: Insulin-like Growth Factor-1, 70 amino acids with 3 internal disulfide bonds
- permeation result of combination compared with individual effects ([2]; IGF-1 + taurocholate + EF2): greater than the sum of the individual permeation effects
- in vitro permeation of IGF-1 across mucosal tissue (Papp) ([2]; with EF 2 alone): does not appear to exhibit an increase in permeation
- in vitro permeation/transport of IGF-1 across mucosal tissue (Papp) ([2]; with EF2 and 1% bile salt): appears to exhibit enhanced permeation/transport
- in vitro permeation of IGF-1 across mucosal tissue (Papp) [2, 6]: does not appear to exhibit an increase in permeation

Molecule: NC(=O)CC[C@@H]1NC(=O)[C@H](Cc2ccccc2)NC(=O)[C@H](Cc2ccc(O)cc2)NC(=O)CCSSC[C@@H](C(=O)N2CCC[C@H]2C(=O)N[C@H](CCCN=C(N)N)C(=O)NCC(N)=O)NC(=O)[C@H](CC(N)=O)NC1=O [Desmopressin, deamino-Cysl-D-Arg Vasopressin]
- permeation of the polypeptide across the mucosal tissue in the in vivo model ([3]; desmopressin in combination with the bile salt alone): does not appear to appreciably increase the permeation
- transport/permeation of the polypeptide across the mucosal tissue in the in vivo model ([3]; desmopressin with combination of bile salt and effervescent formulation): appears to appreciably enhance
- permeation of the polypeptide across the mucosal tissue in the in vivo model ([3]; desmopressin with the effervescent formulations alone): does not appear to appreciably increase the permeation
- in vitro permeation of desmopressin across mucosal tissue (Papp) [4]: does not appear to appreciably increase polypeptide permeation
- in vitro transport/permeability of desmopressin across mucosal tissue (Papp) [4]: appears to exhibit appreciable enhancement

Molecule: IFNα
- specific activity [5]: 260 million IU per mg protein
- permeation result of combination compared with individual effects ([2]; IFNα + taurocholate + EF 1): greater than the sum of the individual permeation effects
- in vitro permeation of IFNα across mucosal tissue (Papp) ([2]; with 1% or 2% bile salt and effervescent composition (EF 1)): does appears to produce appreciable enhancement
- in vitro permeation of IFNα across mucosal tissue (Papp) ([2]; with EF 1 alone): does not appear to appreciably increase the permeation
- in vitro permeation of IFNα across mucosal tissue (Papp) ([2]; with bile salt alone): does not appear to appreciably increase the permeation
